Tests used:
Assay in all cases: Test C preemergence
Format in all cases: in vivo
[1] = test system: winter wheat (Triticum aestivum); conditions: Triticum aestivum, pre-emergence, 336 h, scale 0 to 100, read-out: Plant response rating, Wheat
Outline: (§1)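 After preemergence treatment of seeds in loam-sand soil or foliar treatment at the 1- to 4-leaf stage of plants in peat/vermiculite medium, pots were kept 13-15 days in the greenhouse. Each was then scored visually, 0 meaning no effect and 100 complete control.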

[2] = test system: corn (Zea mays); conditions: Zea mays, pre-emergence, 336 h, scale 0 to 100
Outline: as §1

[3] = test system: galium (catchweed bedstraw, Galium aparine); conditions: Galium, pre-emergence, 336 h, preemergence, scale 0 to 100, read-out: Plant response rating, Galium
Outline: as §1

[4] = test system: yellow nutsedge (Cyperus esculentus); conditions: Cyperus, pre-emergence, 336 h, scale 0 to 100, read-out: Plant response rating, Nutsedge, Yellow
Outline: as §1

[5] = test system: Italian ryegrass (Lolium multiflorum); conditions: Lolium multiflorum, pre-emergence, 336 h, scale 0 to 100, read-out: Plant response rating, Ryegrass, Italian
Outline: as §1

[6] = test system: giant foxtail (Setaria faberii); conditions: Setaria faberi, pre-emergence, 336 h, scale 0 to 100, read-out: Plant response rating, Foxtail, Giant
Outline: as §1

[7] = test system: ragweed (common ragweed, Ambrosia elatior); conditions: Ambrosia artemisiifolia, pre-emergence, 336 h, preemergence, scale 0 to 100, read-out: Plant response rating, Ragweed
Outline: as §1

[8] = test system: waterhemp (common waterhemp, Amaranthus rudis); conditions: Amaranthus tuberculatus, pre-emergence, scale 0 to 100, read-out: Plant response rating, Waterhemp
Outline: as §1

[9] = test system: johnsongrass (Sorghum halepense); conditions: Sorghum halepense, pre-emergence, 336 h, scale 0 to 100, read-out: Plant response rating, Johnsongrass
Outline: as §1

[10] = test system: large (Lg) crabgrass (Digitaria sanguinalis); conditions: Digitaria sanguinalis, pre-emergence, 336 h, scale 0 to 100, read-out: Plant response rating, Crabgrass, Large
Outline: as §1

[11] = test system: velvetleaf (Abutilon theophrasti); conditions: Abutilon theophrasti, pre-emergence, scale 0 to 100, read-out: Plant response rating, Velvetleaf
Outline: as §1

[12] = test system: oilseed rape (Brassica napus); conditions: Brassica napus, pre-emergence, preemergence, scale 0 to 100, read-out: Plant response rating, Oilseed Rape
Outline: as §1

[13] = test system: soybean (Glycine max); conditions: Glycine max, pre-emergence, preemergence, scale 0 to 100, read-out: Plant response rating, Soybean
Outline: as §1

[14] = test system: blackgrass (Alopecurus myosuroides); conditions: Alopecurus myosuroides, pre-emergence, 336 h, scale 0 to 100, read-out: Plant response rating, Blackgrass
Outline: as §1

[15] = test system: pigweed (Amaranthus retroflexus); conditions: Amaranthus retroflexus, pre-emergence, 336 h, scale 0 to 100, read-out: Plant response rating, Pigweed
Outline: as §1

[16] = test system: morningglory (Ipomoea coccinea); conditions: Ipomoea, pre-emergence, 336 h, scale 0 to 100, read-out: Plant response rating, Morningglory
Outline: as §1

## N#Cc1cccc(Oc2ncc(Br)cn2)c1Oc1ncc(Cl)cn1 [Compound 5, 3-[(5-bromo-2-pyrimidinyl)oxy]-2-[(5-chloro-2-pyrimidinyl)oxy]benzonitrile]
[1]; 31 g ai/ha, preemergence
  plant injury at 31 g/ha: 0%
[1]; 62 g ai/ha, preemergence
  plant injury at 62 g/ha: 5%
[1]; 125 g ai/ha, preemergence
  plant injury at 125 g/ha: 35%
[1]; Preemergence, 16 g ai/ha
  plant injury at 16 g/ha: 0%
[2]; 31 g ai/ha, preemergence
  Corn plant response rating (crop injury, 0 = no effect, 100 = complete kill) at 31 g/ha: 25%
[2]; 62 g ai/ha, preemergence
  Corn plant response rating (crop injury, 0 = no effect, 100 = complete kill) at 62 g/ha: 60%
[2]; 125 g ai/ha, preemergence
  Corn plant response rating (crop injury, 0 = no effect, 100 = complete kill) at 125 g/ha: 75%
[2]; Preemergence, 16 g ai/ha
  Corn plant response rating (crop injury, 0 = no effect, 100 = complete kill) at 16 g/ha: 5%
[3]; 31 g ai/ha
  pest or weed control at 31 g/ha: 50%
[3]; 62 g ai/ha
  pest or weed control at 62 g/ha: 100%
[3]; 125 g ai/ha
  pest or weed control at 125 g/ha: 100%
[4]; 31 g ai/ha, preemergence
  pest or weed control at 31 g/ha: 5%
[4]; 62 g ai/ha, preemergence
  pest or weed control at 62 g/ha: 25%
[4]; 125 g ai/ha, preemergence
  pest or weed control at 125 g/ha: 60%
[4]; Preemergence, 16 g ai/ha
  pest or weed control at 16 g/ha: 0%
[5]; 31 g ai/ha, preemergence
  pest or weed control at 31 g/ha: 5%
[5]; 62 g ai/ha, preemergence
  pest or weed control at 62 g/ha: 55%
[5]; 125 g ai/ha, preemergence
  pest or weed control at 125 g/ha: 60%
[5]; Preemergence, 16 g ai/ha
  pest or weed control at 16 g/ha: 0%
[6]; 31 g ai/ha, preemergence
  pest or weed control at 31 g/ha: 80%
[6]; 62 g ai/ha, preemergence
  pest or weed control at 62 g/ha: 100%
[6]; 125 g ai/ha, preemergence
  pest or weed control at 125 g/ha: 100%
[6]; Preemergence, 16 g ai/ha
  pest or weed control at 16 g/ha: 30%
[7]; 31 g ai/ha
  pest or weed control at 31 g/ha: 20%
[7]; 62 g ai/ha
  pest or weed control at 62 g/ha: 80%
[7]; 125 g ai/ha
  pest or weed control at 125 g/ha: 100%
[8]; 31 g ai/ha, preemergence
  pest or weed control at 31 g/ha: 100%
[8]; 62 g ai/ha, preemergence
  pest or weed control at 62 g/ha: 100%
[8]; 125 g ai/ha, preemergence
  pest or weed control at 125 g/ha: 100%
[8]; Preemergence, 16 g ai/ha
  pest or weed control at 16 g/ha: 85%
[9]; 31 g ai/ha, preemergence
  pest or weed control at 31 g/ha: 40%
[9]; 62 g ai/ha, preemergence
  pest or weed control at 62 g/ha: 70%
[9]; 125 g ai/ha, preemergence
  pest or weed control at 125 g/ha: 80%
[9]; Preemergence, 16 g ai/ha
  pest or weed control at 16 g/ha: 0%
[10]; 31 g ai/ha, preemergence
  pest or weed control at 31 g/ha: 98%
[10]; 62 g ai/ha, preemergence
  pest or weed control at 62 g/ha: 100%
[10]; 125 g ai/ha, preemergence
  pest or weed control at 125 g/ha: 100%
[10]; Preemergence, 16 g ai/ha
  pest or weed control at 16 g/ha: 70%
[11]; 31 g ai/ha, preemergence
  pest or weed control at 31 g/ha: 90%
[11]; 62 g ai/ha, preemergence
  pest or weed control at 62 g/ha: 100%
[11]; 125 g ai/ha, preemergence
  pest or weed control at 125 g/ha: 100%
[11]; Preemergence, 16 g ai/ha
  pest or weed control at 16 g/ha: 60%
[12]; 31 g ai/ha
  plant injury at 31 g/ha: 70%
[12]; 62 g ai/ha
  plant injury at 62 g/ha: 98%
[12]; 125 g ai/ha
  plant injury at 125 g/ha: 100%
[13]; 31 g ai/ha
  plant injury at 31 g/ha: 45%
[13]; 62 g ai/ha
  plant injury at 62 g/ha: 65%
[13]; 125 g ai/ha
  plant injury at 125 g/ha: 85%
[14]; 31 g ai/ha, preemergence
  pest or weed control at 31 g/ha: 30%
[14]; 62 g ai/ha, preemergence
  pest or weed control at 62 g/ha: 40%
[14]; 125 g ai/ha, preemergence
  pest or weed control at 125 g/ha: 70%
[14]; Preemergence, 16 g ai/ha
  pest or weed control at 16 g/ha: 10%
[15]; 31 g ai/ha, preemergence
  pest or weed control at 31 g/ha: 100%
[15]; 62 g ai/ha, preemergence
  pest or weed control at 62 g/ha: 100%
[15]; 125 g ai/ha, preemergence
  pest or weed control at 125 g/ha: 100%
[15]; Preemergence, 16 g ai/ha
  pest or weed control at 16 g/ha: 100%
[16]; 31 g ai/ha, preemergence
  pest or weed control at 31 g/ha: 60%
[16]; 62 g ai/ha, preemergence
  pest or weed control at 62 g/ha: 80%
[16]; 125 g ai/ha, preemergence
  pest or weed control at 125 g/ha: 95%
[16]; Preemergence, 16 g ai/ha
  pest or weed control at 16 g/ha: 30%

— US20170190671A1, “BIS(ARYL)CATECHOL DERIVATIVES AS HERBICIDES” (E I DU PONT DE NEMOURS AND COMPANY, priority 2014, published 2017)
